Source: patent publication US4360663A, “Steroid hormone-antitumor derivatives” (Kureha Kagaku Kogyo Kabushiki Kaisha, priority 1978, dated 1982)

Tests used:
[1] = system: estrogen sensitive cells (uterus of rabbit); test: Binding function to estrogen sensitive cells (3H-estradiol replacement, uterus of rabbit); conditions: 100 nM sample; smaller value = higher binding; 54-56% at 0 nM
Method: Binding function of the active ingredients to estrogen sensitive cells.
The binding function of the active ingredient to tumor cells was tested by the method described in Biochemical Experiment text Hormone (I) (Nippon Seikagaku) (Tokyo Kagakudojin page 217-252, April 25, 1977).
Estradiol labelled by tritium (^3 H) was incubated with uterus of rabbit to bind it and then, the sample was added to the system to measure the amount of free ^3 H-estradiol which was replaced by the added estradiol. The results are shown as the binding ^3 H-estradiol(%) in the cases adding […] of the sample.

[2] = system: estrogen sensitive cells (uterus of rabbit); test: as above; conditions: 10 nM sample; smaller value = higher binding; 54-56% at 0 nM
[3] = Acute toxicity (LD50), ICR-JCL female mice, Litchfield-Wilcoxon graph method; conditions: mouse, in vivo, one dose, in olive oil, after 7 days
Method: In the measurement of LD50, eight ICR-JCL female mice (5 week age) were used as one group to breed in a transparent polycage, and each drug was dissolved in olive oil and administrated by routes of intraperitoneal injection (i.p.), oral administration (p.o.) and subcutaneous injection (s.c.), to the mice at one dose and then, their value of LD50 by Litchfield-Wilcoxon graph method is obtained after 7 days.
(§1) The tests (1), (2), (3) for various active ingredients were carried out.

[4] = system: human breast cancer cells having steroid hormone receptor; test: Antitumor test (in vivo), human breast cancer cells implanted in BALB/C-nu/nu mice; conditions: tumors excised day 25
Method: Pieces of human breast cancer cells having steroid hormone receptor was subcutaneously implanted under the arm of mice (BALB/C-nu/nu) (5 week age) to form solid tumors. After the solid tumors were established, each dispersion or solution of the active ingredient in olive oil was administered by oral dose or intraperitoneal injection each other day for 10 times or every days for 20 times. Twenty five days from the initial administration, the tumors were excised. Efficiency of inhibition of tumor proliferation was measured from (A) each average weight of excised tumors for 10 mice (the active ingredient was administrated) and (B) each average weight of excised tumors for 10 control mice. [formula]
as §1

Compound	Binding 3H-estradiol [1] [%]	Binding 3H-estradiol [2] [%]	LD50 at 168 h ([3]; ip) [mg/kg]	LD50 at 168 h ([3]; po) [mg/kg]	Inhibitory effect of tumor, efficiency ([4]; p.o., 10 mg/kg) [%]	also measured
CO[C@H]1O[C@H](CO)[C@@H](O)[C@H](O)[C@H]1NC(=O)N(CCCl)N=O [compound 3]	55	55				
COc1cccc2c1C(=O)c1c(O)c3c(c(O)c1C2=O)C[C@@](O)(C(C)=O)C[C@@H]3O[C@H]1C[C@H](N)[C@H](O)[C@H](C)O1 [compound 4]	56	56				
CN(N=O)C(=O)N[C@H]1C(O)O[C@H](C(=O)OCC(=O)O[C@H]2CC[C@H]3[C@@H]4CCc5cc(O)ccc5[C@H]4CC[C@]23C)[C@@H](O)[C@@H]1O (stereo partly drawn) [Test No. 6 (Table 17), 3-hydroxy-1,3,5(10)-estratriene-17β-[2-(N'-methyl-N'-nitrosoureido)-2-deoxy-D-glucuronoyloxy]acetate]	16	28	> 660	> 1000	77	Inhibitory effect of tumor, efficiency ([4]; i.p., 5 mg/kg): 92%; Inhibitory effect of tumor, efficiency ([4]; i.p., 10 mg/kg): 97%; Inhibitory effect of tumor, efficiency ([4]; p.o., 40 mg/kg): 84%
3-hydroxy-1,3,5(10)-estratriene-17β-[methyl-2-{N'-(2-chloroethyl)-N'-nitrosoureido}-2-deoxy-α-D-glucuronoyloxy]acetate [Test No. 2 (Table 17)]	17	37				
C[C@]12CC[C@@H]3c4ccc(O)cc4CC[C@H]3[C@@H]1CC[C@@H]2O [compound 1]	16	36				
C[C@]12CC[C@@H]3c4ccc(O)cc4CC[C@H]3[C@@H]1CC[C@@H]2OC(=O)Cn1cc(F)c(=O)[nH]c1=O [Test No. 7 (Table 17), 3-hydroxy-1,3,5(10)-estratriene-17β-[5-fluoro-2,4-dioxo-pyrimidin-1-yl]acetate]	25	36	> 605	> 2000		Inhibitory effect of tumor, efficiency ([4]; i.p., 10 mg/kg): 90%; Inhibitory effect of tumor, efficiency ([4]; i.p., 20 mg/kg): 100%
CN(Cc1cnc2nc(N)nc(N)c2n1)c1ccc(C(=O)N[C@@H](CCC(=O)OCC(=O)O[C@H]2CC[C@H]3[C@@H]4CCc5cc(O)ccc5[C@H]4CC[C@]23C)C(=O)OCC(=O)O[C@H]2CC[C@H]3[C@@H]4CCc5cc(O)ccc5[C@H]4CC[C@]23C)cc1 [Test No. 9 (Table 17), bis 3-hydroxy-1,3,5(10)-estratriene-17β-oxycarbonylmethyl-4-amino-N^10-methylpteroylglutamate]	19	35	> 235	> 3000	80	Inhibitory effect of tumor, efficiency ([4]; i.p., 5 mg/kg): 98%; Inhibitory effect of tumor, efficiency ([4]; p.o., 50 mg/kg): 93%
CO[C@H]1O[C@H](C(=O)OCC(=O)O[C@H]2CC[C@H]3[C@@H]4CCc5cc(O)ccc5[C@H]4CC[C@]23C)[C@@H](O)[C@H](O)[C@H]1NC(=O)N(CCCl)N=O [compound 2]	30	45	> 180	> 1000	79	Inhibitory effect of tumor, efficiency ([4]; i.p., 1 mg/kg): 90%; Inhibitory effect of tumor, efficiency ([4]; i.p., 3 mg/kg): 92%; Inhibitory effect of tumor, efficiency ([4]; p.o., 40 mg/kg): 82%
O=c1[nH]cc(F)c(=O)[nH]1 [compound 8]	53	55				
C[C@]12CC[C@@H]3c4ccc(OC(=O)c5ccccc5)cc4CC[C@H]3[C@@H]1CC[C@@H]2OC(=O)Cn1cc(F)c(=O)[nH]c1=O [Test No. 8 (Table 18), 3-benzoyloxy-1,3,5(10)-estratriene-17β-[5-fluoro-2,4-dioxo-pyrimidin-1-yl]acetate]			680	> 3000		Inhibitory effect of tumor, efficiency ([4]; i.p., 15 mg/kg): 83%; Inhibitory effect of tumor, efficiency ([4]; i.p., 30 mg/kg): 90%; Inhibitory effect of tumor, efficiency ([4]; p.o., 15 mg/kg): 70%; Inhibitory effect of tumor, efficiency ([4]; p.o., 30 mg/kg): 81%
